Test results as given in patent US20230085307A1, “PYRIDAZINONE COMPOUND AND HERBICIDE” (NISSAN CHEMICAL CORPORATION, priority 2019, published 2023).

These molecules were tested on Chinese sprangletop (assay: Test Example 3: herbicidal effect by foliage application, Wagner pot (Table 18, symbol D)). Conditions: 320 g/ha.
Type: in vivo, chinese sprangletop (Leptochloa chinensis)
Method in brief: (§1)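 Plants were sown in alluvial soil held under 0.1–0.5 cm standing water and grown 14 days in a greenhouse at 25–30 °C. An emulsifiable formulation, water-diluted to the set dose, was then sprayed onto the foliage, and effects were scored three weeks later using previously defined criteria.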

| SMILES | herbicidal effect on Chinese sprangletop (D) |
| --- | --- |
| CCCC(=O)Oc1c(C)nn(C)c(=O)c1-c1c(-c2ccc(Cl)cc2)sc2c(F)cccc12 [4-041] | 4 (Herbicidal rate of 70% or more and less than 90%) |

These molecules were tested on southern crabgrass (assay: Test Example 5: herbicidal effect by foliage application, plastic box (Table 20, symbol F)). Conditions: 320 g/ha, foliage application after 14-day growth, evaluated three weeks after application.
Type: in vivo, southern crabgrass (Digitaria ciliaris)
Method in brief: (§2)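 Plants were sown into sterilized diluvial soil under about 1.5 cm cover and kept in a greenhouse at 25° C. to 30° C. Fourteen days on, foliage received an even spray of the diluted emulsion. Herbicidal or crop effect was judged three weeks afterwards.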

| SMILES | herbicidal effect on F: southern crabgrass (evaluation grade 0-5) |
| --- | --- |
| CCCC(=O)Oc1c(C)nn(C)c(=O)c1-c1c(-c2ccc(Cl)cc2)sc2c(F)cccc12 [4-041] | 0 (Herbicidal rate of 5% or less (almost no effect)) |

What follows are molecules tested on rice flat sedge (assay: Test Example 3: herbicidal effect by foliage application, Wagner pot (Table 18, symbol E)). Conditions: 320 g/ha.
Type: in vivo, rice flat sedge (Cyperus iria)
Method in brief: as §1

| SMILES | herbicidal effect on rice flat sedge (E) |
| --- | --- |
| CCCC(=O)Oc1c(C)nn(C)c(=O)c1-c1c(-c2ccc(Cl)cc2)sc2c(F)cccc12 [4-041] | 5 (Herbicidal rate of 90% or more (almost completely withered)) |

What follows are molecules tested on Japanese bulrush (assay: Test Example 2: herbicidal activity, application during weed generation under submerged conditions (Table 17, symbol B)). Conditions: AAH 320 g/ha; application during weed generation, submerged conditions.
Type: in vivo, Japanese bulrush (Schoenoplectus juncoides)
Method in brief: (§3)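 Effect on each weed is rated three weeks post-treatment, using the same scoring criteria as the preceding test. Plants grow from mixed-sown seed in flooded alluvial soil (4 cm water) at 25° C. to 30° C., and are treated at one to two leaves with diluted emulsion dropped onto the water.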

| SMILES | herbicidal effect rating, B: Japanese bulrush |
| --- | --- |
| CCCC(=O)Oc1c(C)nn(C)c(=O)c1-c1c(-c2ccc(Cl)cc2)sc2c(F)cccc12 [4-041] | 3 (Herbicidal rate of 40% or more and less than 70%) |

What follows are molecules tested on lambsquarters (assay: Test Example 5: herbicidal effect by foliage application, plastic box (Table 20, symbol O)). Conditions: 320 g/ha, foliage application after 14-day growth, evaluated three weeks after application.
Type: in vivo, lambsquarters (Chenopodium album)
Method in brief: as §2

| SMILES | herbicidal effect on O: lambsquarters (evaluation grade 0-5) |
| --- | --- |
| CCCC(=O)Oc1c(C)nn(C)c(=O)c1-c1c(-c2ccc(Cl)cc2)sc2c(F)cccc12 [4-041] | 3 (Herbicidal rate of 40% or more and less than 70%) |

The molecules below were run on barnyard grass (assay: Test Example 3: herbicidal effect by foliage application, Wagner pot (Table 18, symbol H)). Conditions: 320 g/ha.
Type: in vivo, barnyard grass (Echinochloa crus-galli)
Method in brief: as §1

| SMILES | herbicidal effect on barnyard grass (H) |
| --- | --- |
| CCCC(=O)Oc1c(C)nn(C)c(=O)c1-c1c(-c2ccc(Cl)cc2)sc2c(F)cccc12 [4-041] | 5 (Herbicidal rate of 90% or more (almost completely withered)) |

The molecules below were run on oval-leafed pondweed (assay: Test Example 2: herbicidal activity, application during weed generation under submerged conditions (Table 17, symbol C)). Conditions: AAH 320 g/ha; application during weed generation, submerged conditions.
Type: in vivo, oval-leafed pondweed (Monochoria vaginalis)
Method in brief: as §3

| SMILES | herbicidal effect rating, C: oval-leafed pondweed |
| --- | --- |
| CCCC(=O)Oc1c(C)nn(C)c(=O)c1-c1c(-c2ccc(Cl)cc2)sc2c(F)cccc12 [4-041] | 0 (Herbicidal rate of 5% or less (almost no effect)) |

These molecules were tested on barnyard grass (assay: Test Example 5: herbicidal effect by foliage application, plastic box (Table 20, symbol H)). Conditions: 320 g/ha, foliage application after 14-day growth, evaluated three weeks after application.
Type: in vivo, barnyard grass (Echinochloa crus-galli)
Method in brief: as §2

| SMILES | herbicidal effect on H: barnyard grass (evaluation grade 0-5) |
| --- | --- |
| CCCC(=O)Oc1c(C)nn(C)c(=O)c1-c1c(-c2ccc(Cl)cc2)sc2c(F)cccc12 [4-041] | 4 (Herbicidal rate of 70% or more and less than 90%) |

What follows are molecules tested on blackgrass (assay: Test Example 5: herbicidal effect by foliage application, plastic box (Table 20, symbol J)). Conditions: 320 g/ha, foliage application after 14-day growth, evaluated three weeks after application.
Type: in vivo, blackgrass (Alopecurus myosuroides)
Method in brief: as §2

| SMILES | herbicidal effect on J: blackgrass (evaluation grade 0-5) |
| --- | --- |
| CCCC(=O)Oc1c(C)nn(C)c(=O)c1-c1c(-c2ccc(Cl)cc2)sc2c(F)cccc12 [4-041] | 1 (Herbicidal rate of 5% or more and less than 20%) |

These molecules were tested on Italian ryegrass (assay: Test Example 5: herbicidal effect by foliage application, plastic box (Table 20, symbol K)). Conditions: 320 g/ha, foliage application after 14-day growth, evaluated three weeks after application.
Type: in vivo, Italian ryegrass (Lolium multiflorum)
Method in brief: as §2

| SMILES | herbicidal effect on K: Italian ryegrass (evaluation grade 0-5) |
| --- | --- |
| CCCC(=O)Oc1c(C)nn(C)c(=O)c1-c1c(-c2ccc(Cl)cc2)sc2c(F)cccc12 [4-041] | 3 (Herbicidal rate of 40% or more and less than 70%) |

The molecules below were run on Japanese bulrush (assay: Test Example 1: herbicidal activity, application before weed generation under submerged conditions (Table 16, symbol B)). Conditions: amount of applied herbicide 320 g/ha.
Type: in vivo, Japanese bulrush (Schoenoplectus juncoides)
Method in brief: (§4)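 Submerged Wagner pots (alluvial soil, 4 cm water) sown with weed seeds and planted with 2.5-leaf rice seedlings; emulsifiable concentrate diluted in water applied to water surface on sowing day. Held in greenhouse at 25-30 °C; injury scored 0-5 by herbicidal rate after three weeks.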

| SMILES | Herbicidal effect, B: Japanese bulrush |
| --- | --- |
| CCCC(=O)Oc1c(C)nn(C)c(=O)c1-c1c(-c2ccc(Cl)cc2)sc2c(F)cccc12 [4-041] | 0 (Herbicidal rate of 5% or less (almost no effect)) |

Each molecule was assayed on chickweed (assay: Test Example 5: herbicidal effect by foliage application, plastic box (Table 20, symbol P)). Conditions: 320 g/ha, foliage application after 14-day growth, evaluated three weeks after application.
Type: in vivo, common chickweed (Stellaria media)
Method in brief: as §2

| SMILES | herbicidal effect on P: chickweed (evaluation grade 0-5) |
| --- | --- |
| CCCC(=O)Oc1c(C)nn(C)c(=O)c1-c1c(-c2ccc(Cl)cc2)sc2c(F)cccc12 [4-041] | 5 (Herbicidal rate of 90% or more (almost completely withered)) |

These molecules were tested on late watergrass (assay: Test Example 1: herbicidal activity, application before weed generation under submerged conditions (Table 16, symbol A)). Conditions: amount of applied herbicide 320 g/ha.
Type: in vivo, late watergrass (Echinochloa oryzicola)
Method in brief: as §4

| SMILES | Herbicidal effect, A: late watergrass |
| --- | --- |
| CCCC(=O)Oc1c(C)nn(C)c(=O)c1-c1c(-c2ccc(Cl)cc2)sc2c(F)cccc12 [4-041] | 3 (Herbicidal rate of 40% or more and less than 70%) |

What follows are molecules tested on velvetleaf (assay: Test Example 5: herbicidal effect by foliage application, plastic box (Table 20, symbol M)). Conditions: 320 g/ha, foliage application after 14-day growth, evaluated three weeks after application.
Type: in vivo, velvetleaf (Abutilon theophrasti)
Method in brief: as §2

| SMILES | herbicidal effect on M: velvetleaf (evaluation grade 0-5) |
| --- | --- |
| CCCC(=O)Oc1c(C)nn(C)c(=O)c1-c1c(-c2ccc(Cl)cc2)sc2c(F)cccc12 [4-041] | 5 (Herbicidal rate of 90% or more (almost completely withered)) |

What follows are molecules tested on windgrass (assay: Test Example 5: herbicidal effect by foliage application, plastic box (Table 20, symbol L)). Conditions: 320 g/ha, foliage application after 14-day growth, evaluated three weeks after application.
Type: in vivo, windgrass (Apera spica-venti)
Method in brief: as §2

| SMILES | herbicidal effect on L: windgrass (evaluation grade 0-5) |
| --- | --- |
| CCCC(=O)Oc1c(C)nn(C)c(=O)c1-c1c(-c2ccc(Cl)cc2)sc2c(F)cccc12 [4-041] | 4 (Herbicidal rate of 70% or more and less than 90%) |

Each molecule was assayed on wild oat (assay: Test Example 5: herbicidal effect by foliage application, plastic box (Table 20, symbol I)). Conditions: 320 g/ha, foliage application after 14-day growth, evaluated three weeks after application.
Type: in vivo, wild oat (Avena fatua)
Method in brief: as §2

| SMILES | herbicidal effect on I: wild oat (evaluation grade 0-5) |
| --- | --- |
| CCCC(=O)Oc1c(C)nn(C)c(=O)c1-c1c(-c2ccc(Cl)cc2)sc2c(F)cccc12 [4-041] | 3 (Herbicidal rate of 40% or more and less than 70%) |

The molecules below were run on persian speedwell (assay: Test Example 5: herbicidal effect by foliage application, plastic box (Table 20, symbol R)). Conditions: 320 g/ha, foliage application after 14-day growth, evaluated three weeks after application.
Type: in vivo, Persian speedwell (Veronica persica)
Method in brief: as §2

| SMILES | herbicidal effect on R: persian speedwell (evaluation grade 0-5) |
| --- | --- |
| CCCC(=O)Oc1c(C)nn(C)c(=O)c1-c1c(-c2ccc(Cl)cc2)sc2c(F)cccc12 [4-041] | 5 (Herbicidal rate of 90% or more (almost completely withered)) |

These molecules were tested on late watergrass (assay: Test Example 2: herbicidal activity, application during weed generation under submerged conditions (Table 17, symbol A)). Conditions: AAH 320 g/ha; application during weed generation, submerged conditions.
Type: in vivo, late watergrass (Echinochloa oryzicola)
Method in brief: as §3

| SMILES | herbicidal effect rating, A: late watergrass |
| --- | --- |
| CCCC(=O)Oc1c(C)nn(C)c(=O)c1-c1c(-c2ccc(Cl)cc2)sc2c(F)cccc12 [4-041] | 0 (Herbicidal rate of 5% or less (almost no effect)) |

What follows are molecules tested on green foxtail (assay: Test Example 5: herbicidal effect by foliage application, plastic box (Table 20, symbol G)). Conditions: 320 g/ha, foliage application after 14-day growth, evaluated three weeks after application.
Type: in vivo, green foxtail (Setaria viridis)
Method in brief: as §2

| SMILES | herbicidal effect on G: green foxtail (evaluation grade 0-5) |
| --- | --- |
| CCCC(=O)Oc1c(C)nn(C)c(=O)c1-c1c(-c2ccc(Cl)cc2)sc2c(F)cccc12 [4-041] | 3 (Herbicidal rate of 40% or more and less than 70%) |

These molecules were tested on redroot pigweed (assay: Test Example 5: herbicidal effect by foliage application, plastic box (Table 20, symbol N)). Conditions: 320 g/ha, foliage application after 14-day growth, evaluated three weeks after application.
Type: in vivo, redroot pigweed (Amaranthus retroflexus)
Method in brief: as §2

| SMILES | herbicidal effect on N: redroot pigweed (evaluation grade 0-5) |
| --- | --- |
| CCCC(=O)Oc1c(C)nn(C)c(=O)c1-c1c(-c2ccc(Cl)cc2)sc2c(F)cccc12 [4-041] | 5 (Herbicidal rate of 90% or more (almost completely withered)) |

These molecules were tested on oval-leafed pondweed (assay: Test Example 1: herbicidal activity, application before weed generation under submerged conditions (Table 16, symbol C)). Conditions: amount of applied herbicide 320 g/ha.
Type: in vivo, oval-leafed pondweed (Monochoria vaginalis)
Method in brief: as §4

| SMILES | Herbicidal effect, C: oval-leafed pondweed |
| --- | --- |
| CCCC(=O)Oc1c(C)nn(C)c(=O)c1-c1c(-c2ccc(Cl)cc2)sc2c(F)cccc12 [4-041] | 0 (Herbicidal rate of 5% or less (almost no effect)) |
